Laboratory results reported in patent publication US12103919B2, “3-(5-oxy)-1-oxoisoindolin-2-yl)piperidine-2,6-dione derivatives and uses thereof” (NOVARTIS AG, priority 2021, dated 2024).
Read-outs that look alike come from different tables or passages of the source.

Target: T1, WIZ (Homo sapiens, UniProt O95785+Q96SW2)
T1 construct: expressed in transfected cells
Test: Quantification of WIZ protein levels in HiBit tag fusion protein assay (293T cells)
Assay type: cell-based
Set-up: Dmax: dose or concentration left out as unconfirmed
Protocol: The HiBit system from Promega was used to develop high-throughput and quantitative assays to measure changes in WIZ protein levels in response to compounds. The HiBit tag was derived from a split Nanoluciferase and has the following protein sequence: […] (SEQ ID NO: 1). The complementary fragment of Nanoluciferase (known as LgBit, from Promega), was added to the HiBit tag to form an active Nanoluciferase enzyme whose activity can be precisely measured. In this way, the levels of a fusion protein with the HiBit tag can be quantified in cell lysates.
Lentiviral vectors, based on the Invitrogen™ pLenti6.2/V5 DEST backbone were constructed that places the HiBit tag upstream of WIZ and expressed the fusion protein from an HSVTK promotor.
To ensure moderate and consistent expression of the HiBit-WIZ fusion protein across all cells in the population, stable cell lines were constructed from cells harboring a single copy of the construct. Lentivirus packaged with the constructs were made using the ViraPowerTMkit from Invitrogen™. 293T cells from ATCC (Catalog number: CRL-3216), were infected with the virus at low multiplicity of infection and selected by 5 μg/mL blasticidin in culture media for 2 weeks.
The levels of HiBit-WIZ tagged fusion proteins in compound-treated cell lines were measured as follows:
On day 1, cells were diluted to 1.0×10^6 cells/ml in normal growth medium. 20 μL of cell suspension were plated in each well of a solid white 384-well plate. Plates were incubated overnight in a 37° C. and 5% CO2 humidified tissue culture incubator.
On day 2, serial dilutions of compounds were made in 384-well plates. Compound plates were set up with DMSO in columns 1, 2, 23, 24, and 10-point compound dilution series in column 3-12 and column 13-22. 10 mM stock solution of compound were placed into column 3 or 13 and a 1:5 serial dilution was carried out until there was a 10-point dilution series per compound. 50 nL of diluted compounds were transferred into the plated cells by Echo® (Labcyte) acoustic transfer. The highest concentration of compound was 25 μM. Plates were incubated overnight (about 18 hours) in a 37° C. and 5% CO2 humidified tissue culture incubator.
On day 3, plates were removed from the incubator and allowed to equilibrate at room temperature for 60 minutes. HiBit substrate (Nano-Glo® HiBit Lytic Detection System, Promega Catalogue number: N3050) was added as described by the manufacturers protocols. Plates were incubated at room temperature for 30 minutes and luminescence was read using an EnVision® reader (PerkinElmer®). Data was analyzed and visualized using the Spotfire® software package.
WIZ Amax reflects the DMSO-normalized, curve-fitted percentage of WIZ-HiBit remaining at 25 uM. It was calculated by normalizing DMSO controls to 100%, parametric curve fitting of the dose response data (10-point, 5-fold), followed by calculation of response at 25 uM using the fitted equation.

[1] = HEK-293T; DMSO-normalized, curve-fitted percentage of WIZ-HiBit remaining at 25 uM; read-out: WIZ Amax
[2] = HEK-293T; at 25 uM, 100 − Amax; read-out: % degradation of WIZ (100 − Amax)
[3] = WIZ HiBit assay in 293T cells, about 18 hours, 10-point 5-fold dilution, top 25 μM; read-out: WIZ AC50
[4] = DMSO-normalized, curve-fitted percentage of WIZ-HiBit remaining at 25 uM
[5] = HEK-293T, read-out: % degradation of WIZ (100 − Amax)
[6] = read-out: WIZ AC50; WIZ HiBit assay in 293T cells, about 18 hours, 10-point 5-fold dilution, top 25 μM

T1 sequence (O95785 whole entry): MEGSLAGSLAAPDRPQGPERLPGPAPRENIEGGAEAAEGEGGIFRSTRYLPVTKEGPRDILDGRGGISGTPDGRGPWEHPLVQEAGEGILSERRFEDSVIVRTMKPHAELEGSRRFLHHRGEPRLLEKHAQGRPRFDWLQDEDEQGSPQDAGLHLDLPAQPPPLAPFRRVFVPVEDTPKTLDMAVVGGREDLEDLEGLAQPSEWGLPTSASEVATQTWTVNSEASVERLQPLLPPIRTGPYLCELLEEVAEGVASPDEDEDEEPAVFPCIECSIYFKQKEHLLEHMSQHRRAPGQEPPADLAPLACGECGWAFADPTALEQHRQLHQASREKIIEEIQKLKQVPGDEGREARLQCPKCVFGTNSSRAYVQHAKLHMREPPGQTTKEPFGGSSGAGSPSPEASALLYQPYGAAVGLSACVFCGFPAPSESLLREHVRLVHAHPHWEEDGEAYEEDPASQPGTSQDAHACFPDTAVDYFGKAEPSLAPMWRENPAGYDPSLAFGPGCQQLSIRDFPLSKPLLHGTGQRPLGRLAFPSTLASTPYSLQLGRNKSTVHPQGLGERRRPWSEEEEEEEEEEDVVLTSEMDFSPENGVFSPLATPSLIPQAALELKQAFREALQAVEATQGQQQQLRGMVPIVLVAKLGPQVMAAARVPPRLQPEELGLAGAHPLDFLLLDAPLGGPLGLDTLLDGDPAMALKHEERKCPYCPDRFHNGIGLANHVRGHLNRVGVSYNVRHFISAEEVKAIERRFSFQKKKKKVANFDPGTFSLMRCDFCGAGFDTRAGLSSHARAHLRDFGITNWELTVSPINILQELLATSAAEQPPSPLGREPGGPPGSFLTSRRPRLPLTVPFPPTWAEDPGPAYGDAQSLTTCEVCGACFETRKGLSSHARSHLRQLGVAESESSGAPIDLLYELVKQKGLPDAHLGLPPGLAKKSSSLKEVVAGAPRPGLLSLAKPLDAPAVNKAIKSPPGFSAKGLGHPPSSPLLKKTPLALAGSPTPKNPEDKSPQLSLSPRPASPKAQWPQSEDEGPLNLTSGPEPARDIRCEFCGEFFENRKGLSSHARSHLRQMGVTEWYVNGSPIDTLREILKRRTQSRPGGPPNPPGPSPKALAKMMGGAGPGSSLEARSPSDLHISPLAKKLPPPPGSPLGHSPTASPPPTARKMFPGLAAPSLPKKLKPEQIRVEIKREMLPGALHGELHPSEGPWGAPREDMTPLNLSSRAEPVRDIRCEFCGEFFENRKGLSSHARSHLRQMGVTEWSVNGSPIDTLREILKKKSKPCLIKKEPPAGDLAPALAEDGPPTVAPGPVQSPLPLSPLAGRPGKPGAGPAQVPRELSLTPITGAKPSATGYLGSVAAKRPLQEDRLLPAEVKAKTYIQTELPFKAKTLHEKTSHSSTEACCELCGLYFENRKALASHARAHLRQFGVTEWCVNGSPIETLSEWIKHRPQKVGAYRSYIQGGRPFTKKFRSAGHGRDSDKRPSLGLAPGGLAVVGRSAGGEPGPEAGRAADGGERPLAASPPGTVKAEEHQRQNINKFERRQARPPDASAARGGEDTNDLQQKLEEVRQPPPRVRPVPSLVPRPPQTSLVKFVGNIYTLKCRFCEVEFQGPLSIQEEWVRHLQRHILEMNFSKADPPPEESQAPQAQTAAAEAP
T1 sequence (Q96SW2 whole entry): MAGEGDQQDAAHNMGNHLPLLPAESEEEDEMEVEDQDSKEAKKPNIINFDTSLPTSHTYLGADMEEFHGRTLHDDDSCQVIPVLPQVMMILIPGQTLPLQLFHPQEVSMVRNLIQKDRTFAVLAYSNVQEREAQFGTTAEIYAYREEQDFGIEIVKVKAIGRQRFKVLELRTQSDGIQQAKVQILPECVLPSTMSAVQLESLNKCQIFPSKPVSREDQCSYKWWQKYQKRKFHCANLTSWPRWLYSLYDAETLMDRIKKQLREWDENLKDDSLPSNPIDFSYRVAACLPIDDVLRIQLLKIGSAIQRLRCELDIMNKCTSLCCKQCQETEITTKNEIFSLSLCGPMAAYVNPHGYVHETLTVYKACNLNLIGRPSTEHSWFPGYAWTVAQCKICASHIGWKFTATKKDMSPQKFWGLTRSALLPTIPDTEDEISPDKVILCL
T1 sequence (Q16531 whole entry partner): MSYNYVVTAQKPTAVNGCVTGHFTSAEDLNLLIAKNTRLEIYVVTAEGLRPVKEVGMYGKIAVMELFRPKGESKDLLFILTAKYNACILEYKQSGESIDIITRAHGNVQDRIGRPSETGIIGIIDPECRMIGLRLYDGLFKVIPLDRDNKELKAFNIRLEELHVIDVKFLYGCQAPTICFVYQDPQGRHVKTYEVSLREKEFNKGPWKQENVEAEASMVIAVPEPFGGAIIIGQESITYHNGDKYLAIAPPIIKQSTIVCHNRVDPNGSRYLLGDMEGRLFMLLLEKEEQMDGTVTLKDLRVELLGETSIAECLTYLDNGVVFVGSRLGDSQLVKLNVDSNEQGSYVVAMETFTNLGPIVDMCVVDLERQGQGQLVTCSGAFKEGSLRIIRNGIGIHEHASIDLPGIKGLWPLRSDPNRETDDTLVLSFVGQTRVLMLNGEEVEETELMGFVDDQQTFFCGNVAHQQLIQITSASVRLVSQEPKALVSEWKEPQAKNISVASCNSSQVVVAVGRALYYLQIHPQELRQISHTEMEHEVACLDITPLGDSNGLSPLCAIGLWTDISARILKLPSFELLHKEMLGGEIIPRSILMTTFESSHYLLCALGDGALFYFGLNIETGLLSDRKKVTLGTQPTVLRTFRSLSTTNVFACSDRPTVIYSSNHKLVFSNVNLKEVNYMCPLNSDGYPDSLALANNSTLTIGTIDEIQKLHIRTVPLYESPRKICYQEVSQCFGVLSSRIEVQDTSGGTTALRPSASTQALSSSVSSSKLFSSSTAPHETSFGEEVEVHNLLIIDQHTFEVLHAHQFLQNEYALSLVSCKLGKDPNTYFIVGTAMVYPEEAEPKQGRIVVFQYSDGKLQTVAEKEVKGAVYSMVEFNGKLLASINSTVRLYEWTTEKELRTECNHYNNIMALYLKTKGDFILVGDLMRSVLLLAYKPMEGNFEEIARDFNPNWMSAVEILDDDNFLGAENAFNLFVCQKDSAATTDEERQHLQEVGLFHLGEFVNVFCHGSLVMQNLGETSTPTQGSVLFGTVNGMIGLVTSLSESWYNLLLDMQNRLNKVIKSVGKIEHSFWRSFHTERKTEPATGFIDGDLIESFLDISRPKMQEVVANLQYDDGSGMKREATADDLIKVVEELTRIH

SMILES | remaining activity at 25 µM [1] [%] | Dmax at 25 µM [2] [%] | DC50 [3] [nM] | other results
CCN1CCC(C)(C)C(Oc2ccc3c(c2)CN(C2CCC(=O)NC2=O)C3=O)C1 (single isomer, unassigned) [Example 49, 3-(5-((1-ethyl-4,4-dimethylpiperidin-3-yl)oxy)-1-oxoisoindolin-2-yl)piperidine-2,6-dione] | 91.4 | 8.63 | 83 | –
CC[C@H](C)N1CCC(C)(C)C(Oc2ccc3c(c2)CN(C2CCC(=O)NC2=O)C3=O)C1 (single isomer, unassigned) [Example 50] | 97.6 | – | > 25000 | % degradation of WIZ (100 − Amax) (at 25 uM, 100 − Amax): 2.38%
CC[C@H](C)N1CCC(C)(C)C(Oc2ccc3c(c2)CN(C2CCC(=O)NC2=O)C3=O)C1 (single isomer, unassigned) [Example 51] | – | – | 200 | WIZ Amax [4]: 87.19%; % degradation of WIZ (100 − Amax) (at 25 uM, 100 − Amax): 12.81%
CCN1C[C@H](OC)C[C@@H](Oc2ccc3c(c2)CN(C2CCC(=O)NC2=O)C3=O)C1 (single isomer, unassigned) [Example 65-1] | 18.1 | 81.9 | 1.4 | –
CCN1C[C@H](OC)C[C@@H](Oc2ccc3c(c2)CN(C2CCC(=O)NC2=O)C3=O)C1 (single isomer, unassigned) [Example 65-2] | – | – | 1.2 | WIZ Amax [4]: 19.67%; % degradation of WIZ (100 − Amax) (at 25 uM, 100 − Amax): 80.33%
CCN1C[C@H](C)C[C@@H](Oc2ccc3c(c2)CN(C2CCC(=O)NC2=O)C3=O)C1 (single isomer, unassigned) [Example 76-1] | 13.8 | 86.2 | 1.6 | –
CCN1C[C@H](C)C[C@@H](Oc2ccc3c(c2)CN(C2CCC(=O)NC2=O)C3=O)C1 (single isomer, unassigned) [Example 76-2] | – | – | 0.6 | WIZ Amax [4]: 12.82%; % degradation of WIZ (100 − Amax) (at 25 uM, 100 − Amax): 87.18%
CCN1CCC[C@H](Oc2ccc3c(c2)CN(C2CCC(=O)NC2=O)C3=O)C1 (stereo partly drawn) [Example 2, 3-(5-(((S)-1-ethylpiperidin-3-yl)oxy)-1-oxoisoindolin-2-yl)piperidine-2,6-dione] | – | – | 360 | Dmax [5]: 11.1%; remaining activity at 25 µM (HEK-293T, read-out: WIZ Amax): 88.9%
CC(C)CN1CCC[C@@H](Oc2ccc3c(c2)CN(C2CCC(=O)NC2=O)C3=O)C1 (stereo partly drawn) [Example 3, 3-(5-(((R)-1-isobutylpiperidin-3-yl)oxy)-1-oxoisoindolin-2-yl)piperidine-2,6-dione] | 26.8 | 73.2 | 2 | –
O=C1CCC(N2Cc3cc(O[C@@H]4CCCN(CC5COC5)C4)ccc3C2=O)C(=O)N1 (stereo partly drawn) [Example 4, 3-(5-(((R)-1-(oxetan-3-ylmethyl)piperidin-3-yl)oxy)-1-oxoisoindolin-2-yl)piperidine-2,6-dione] | 64.4 | 35.6 | 110 | –
O=C1CCC(N2Cc3cc(O[C@@H]4CCCN(CC5CCC(F)(F)CC5)C4)ccc3C2=O)C(=O)N1 (stereo partly drawn) [Example 5, 3-(5-(((R)-1-((4,4-difluorocyclohexyl)methyl)piperidin-3-yl)oxy)-1-oxoisoindolin-2-yl)piperidine-2,6-dione] | 77.3 | 22.7 | 55 | –
O=C1CCC(N2Cc3cc(O[C@@H]4CCCN(CC5CCCCC5)C4)ccc3C2=O)C(=O)N1 (stereo partly drawn) [Example 6, 3-(5-(((R)-1-(cyclohexylmethyl)piperidin-3-yl)oxy)-1-oxoisoindolin-2-yl)piperidine-2,6-dione] | 86.7 | 13.3 | 31 | –
O=C1CCC(N2Cc3cc(O[C@@H]4CCCN(CC5CCC5)C4)ccc3C2=O)C(=O)N1 (stereo partly drawn) [Example 7, 3-(5-(((R)-1-(cyclobutylmethyl)piperidin-3-yl)oxy)-1-oxoisoindolin-2-yl)piperidine-2,6-dione] | 38.9 | 61.1 | 1.1 | –
CCCN1CCC[C@@H](Oc2ccc3c(c2)CN(C2CCC(=O)NC2=O)C3=O)C1 (stereo partly drawn) [Example 8, 3-(1-oxo-5-(((R)-1-propylpiperidin-3-yl)oxy)isoindolin-2-yl)piperidine-2,6-dione] | 33 | 67 | 28 | –
CC(C)N1CCC[C@@H](Oc2ccc3c(c2)CN(C2CCC(=O)NC2=O)C3=O)C1 (stereo partly drawn) [Example 9, 3-(5-(((R)-1-isopropylpiperidin-3-yl)oxy)-1-oxoisoindolin-2-yl)piperidine-2,6-dione] | – | – | 4.2 | Dmax (HEK-293T, read-out: % degradation of WIZ (100 − Amax), 100 − Amax): 71.5%; remaining activity at 25 µM (HEK-293T, read-out: WIZ Amax, DMSO-normalized, curve-fitted percentage of WIZ-HiBit remaining at 25 uM): 28.5%
O=C1CCC(N2Cc3cc(O[C@@H]4CCCN(C5CCOCC5)C4)ccc3C2=O)C(=O)N1 (stereo partly drawn) [Example 10, 3-(1-oxo-5-(((R)-1-(tetrahydro-2H-pyran-4-yl)piperidin-3-yl)oxy)isoindolin-2-yl)piperidine-2,6-dione] | 45.5 | 54.5 | 33 | –
O=C1CCC(N2Cc3cc(O[C@@H]4CCCN(C5CC6(COC6)C5)C4)ccc3C2=O)C(=O)N1 (stereo partly drawn) [Example 11, 3-(5-(((R)-1-(2-oxaspiro[3.3]heptan-6-yl)piperidin-3-yl)oxy)-1-oxoisoindolin-2-yl)piperidine-2,6-dione] | 56.4 | 43.6 | 110 | –
O=C1CCC(N2Cc3cc(O[C@@H]4CCCN(C5COC5)C4)ccc3C2=O)C(=O)N1 (stereo partly drawn) [Example 12, 3-(5-(((R)-1-(oxetan-3-yl)piperidin-3-yl)oxy)-1-oxoisoindolin-2-yl)piperidine-2,6-dione] | 68.5 | 31.5 | 130 | –
CCn1cc(CN2CCC[C@@H](Oc3ccc4c(c3)CN(C3CCC(=O)NC3=O)C4=O)C2)cn1 (stereo partly drawn) [Example 14, 3-(5-(((R)-1-((1-ethyl-1H-pyrazol-4-yl)methyl)piperidin-3-yl)oxy)-1-oxoisoindolin-2-yl)piperidine-2,6-dione] | – | – | – | Dmax [5]: 59.3%; remaining activity at 25 µM (HEK-293T, read-out: WIZ Amax): 40.7%; DC50 [6]: 57 nM
CCN1CCC2(CC2)[C@@H](Oc2ccc3c(c2)CN(C2CCC(=O)NC2=O)C3=O)C1 (stereo partly drawn) [Example 15, 3-(5-(((R)-6-ethyl-6-azaspiro[2.5]octan-4-yl)oxy)-1-oxoisoindolin-2-yl)piperidine-2,6-dione] | – | – | 8.4 | Dmax [5]: 80%; remaining activity at 25 µM (HEK-293T, read-out: WIZ Amax): 20%
CC(C)CN1CCC2(CC2)[C@@H](Oc2ccc3c(c2)CN(C2CCC(=O)NC2=O)C3=O)C1 (stereo partly drawn) [Example 16, 3-(5-(((R)-6-isobutyl-6-azaspiro[2.5]octan-4-yl)oxy)-1-oxoisoindolin-2-yl)piperidine-2,6-dione] | 40.9 | 59.1 | 2.5 | –
CC[C@H](C)N1CCC2(CC2)[C@@H](Oc2ccc3c(c2)CN(C2CCC(=O)NC2=O)C3=O)C1 (stereo partly drawn) [Example 17, 3-(5-(((R)-6-((S)-sec-butyl)-6-azaspiro[2.5]octan-4-yl)oxy)-1-oxoisoindolin-2-yl)piperidine-2,6-dione] | 27.8 | 72.2 | 14 | –
CCN1C[C@H](Oc2ccc3c(c2)CN(C2CCC(=O)NC2=O)C3=O)CC[C@H]1C (stereo partly drawn) [Example 23, 3-(5-(((3R,6R)-1-ethyl-6-methylpiperidin-3-yl)oxy)-1-oxoisoindolin-2-yl)piperidine-2,6-dione] | – | – | – | Dmax [5]: 57.7%; remaining activity at 25 µM (HEK-293T, read-out: WIZ Amax): 42.3%; DC50 [6]: 30 nM
